The nature of this data set: Stability of mixed skin care composition (base + booster compositions). The note with it: combination results in incompatible pH and separation of phases. The class given is physicochemical. As to the method:
Referring again to FIG. 2, after the ingredient is determined, a compatibility profile is determined corresponding to the previously selected ingredients (step 207). The compatibility profile includes an inclusion or exclusion of additional ingredients to the formulation. That is, the compatibility profile provides acceptable combinations of booster composition and base composition combinations made with the previously selected ingredients that forms stable and efficacious skin care compositions. […] “Stable”, “Stability” and grammatical variations thereof, indicate a macroscopic homogeneous substance that doesn't have variation in texture or varying phases physically noticeable. In addition, microscopically the emulsion of the composition has the appearance of being homogeneous with the droplets and no dynamic changes in the microscope image. […] In addition, compatibility may include ingredients that retain efficacy of individual ingredients when combined with the other ingredients remain present in the formula over time periods and exposures to varying temperature.
Examples and comparative examples below are provided by the cosmetic dispending system as shown and described above. TABLE 3 includes the composition of Base B, the hydroalcoholic base, according to an embodiment of the disclosure.

On to `CC1=C(/C=C/C(C)=C/C=C/C(C)=C/CO)C(C)(C)CCC1` [retinol], for which the “compatibility with hydroalcoholic base” value is on record as “not compatible”.

The values are drawn from patent publication US11944702B2, “Skin care composition and method of making a skin care composition” (L'OREAL, priority 2017, dated 2024).
